Reference: paper PMC11062894, “Protein-based bandpass filters for controlling cellular signaling with chemical inputs” (Nature Chemical Biology, 2023)

System: GEMS receptors with CBPA11 (BclXL–LD3 and BclXLhigh variants), STAT3-driven SEAP in HEK293T cells
Experiment: GEMS SEAP reporter assay, CBPA11 (BclXLhigh, LD3-v and BclXL-v variants) with A-1155463
Assay type: cell-based
Set-up: key to Raw data (SEAP) / SEAP, replicate values / Raw data of Figure 5b / Raw data Figure 5e / Raw data of Independent repeat of CBPA11-v1 vs CBPA11-v1-LD3v3 / Raw data of Independent repeat of CBPA11-v3 vs CBPA11-v3-LD3v3 / Raw data of Figure 5b, CBPA11-v1-LD3v3 (SEAP reporter raw value, single replicate) / Raw data of Figure 5b, CBPA11-v1 (SEAP reporter raw value, single replicate): SEAP activity in U/L in culture supernatant
Settings: SuppFigure 9c
Text: To rationally design a CBP responding to a chemical input, we used BclXL as the druglow receptor, LD3 as the designed binder and a designed BclXL variant as the drughigh receptor (referred to as BclXLhigh) to construct a CBP responsive to BclXL inhibitors (Fig. 4a). To design BclXLhigh, we used a multistate design computational protocol described elsewhere[26] […] Thus, BclXLhigh-v(1–3) were chosen as the functional drughigh receptors, resulting in three A-1155463-controlled CBPs (referred to as CBPA11-v(1–3)) (Fig. 4c–e).
HEK293T cells were seeded in a 96-well plate 24 h before transfection. The transfection mix in each well consisted of 3 ng of constitutive human CMV promoter driven mammalian STAT3 expression vector (PhCMV-STAT3-pA), 30 ng of STAT3-induced reporter expression (OStat3-PhCMVmin-SEAP-pA) and 50 ng of expression vectors for each GEMS receptor chain (PSV40-IgK-(drughigh receptor)-EpoRm-IL-6RBm-pA and PSV40-IgK-(druglow receptor-GGGGSX3-LD3)-EpoRm-IL-6RBm-pA). For the specific drughigh receptor and druglow receptor used in the different cellular assays, they are indicated as wild type or with mutations. Then, plasmid DNA was mixed with 50 μl opti-MEM (Thermo Fisher) and 600 ng of polyethyleneimine (Polysciences, catalog no. 24765-1). For drug treatment experiments, drugs were added 12 h post-transfection and incubated with cells for 24 h before the SEAP reporter detection assay.
SEAP activity (U l^−1) in cell culture supernatants was quantified by kinetic measurements at 405 nm (1 minute per measurement for 30 cycles) of absorbance increase due to phosphatase-mediated hydrolysis of para-nitrophenyl phosphate (pNPP).
Binding affinities of SPR drug competition assays were calculated using three-parameter nonlinear regression in GraphPad Prism (v.8.3.0). Representative data of cell assays are presented as individual values and mean values (bars). n = 3 refers to biological replicates. All IC50 or EC50 values of cell assays reported were calculated using four-parameter nonlinear regression ± s.d. Bandpass features of cutoff concentrations and Bandwidth90% were estimated based on the curve fitted using bell-shaped curve nonlinear regression in GraphPad Prism (v.8.3.0). […]
Supplementary Figure 4: Design, screening and validation of BclXLhigh variants. a) Screening of BclXLhigh variants in the GEMS platform. […]
Dissociation constant measurement of BclXLhigh-v(1-3) and LD3. Equilibrium curves are fitted using […]
BclXLhigh-v1 (purple), BclXLhigh-v2 (blue), […]
a) Bcl2high-based bandpass filter designs were developed and to respond to different concentrations of […]
corresponding inhibitor. c) Screening of Bcl2high-based bandpass filter variants in the GEMS platform.
The designed binder LD3 was fused to the druglow-receptor (PSV40-IgK-Bcl2-LD3-EpoRm-IL-6RBm-pA) in one EpoR chain and Bcl2high variants with the insensitive Bcl2 (iBcl2) as control in the other EpoR chain (PSV40-IgK-Bcl2high-EpoRm-IL-6RBm-pA). HEK293T cells were transfected with indicated […]
the mean of six biological replicates ± s.d., overlaid with a scatter dot plot of the original data points.
(1 picture or pasted object on this page, not shown here)
Supplementary Figure 6: Binding affinities and drug resistances of Bcl2high-v(2,4,5) assessed by […]
a) Measurement of dissociation constants for Bcl2high-v(2,4,5) and LD3 interactions. Equilibrium curves […]
Bcl2high-v(2,4,5) measured by SPR. 5 μM of Bcl2 or indicated variants were mixed with 10 μM of […]
Bcl2high-v2 (red), Bcl2high-v4
Supplementary Figure 7: Screening of LD3 variants in CBPA11-v(1-3) and raw data of CBPA11-v(1,3) with LD3-v3 variant. a-c) Screening of LD3 and LD3-v(1-3) variants in complex with BclXL for more sensitive CBPA11-v1 (a), CBPA11-v2 (b), CBPA11-v3 (c) in the GEMS platform. The LD3 variants replaced the role of LD3 (PSV40-IgK-BclXL-LD3-v(1-3)-EpoRm-IL-6RBm-pA) in one EpoR chain and BclXLhigh-v(1-3) in the other EpoR chain (PSV40-IgK-BclXLhigh-V(1-3)-EpoRm-IL-6RBm-pA). HEK293T cells were transfected with […]

CN(C)CC#Cc1ccc(OCCCc2sc(N3CCc4cccc(C(=O)Nc5nc6ccccc6s5)c4C3)nc2C(=O)O)c(F)c1 [A-1155463]
Raw data (SEAP) (LD3, A-1155463 316 nM): 61.2138
Normalized data (SEAP) (LD3, A-1155463 1000 nM): 55.4364
Raw data (SEAP) (LD3, A-1155463 1000 nM): 44.3919
Normalized data (SEAP) (LD3, A-1155463 3160 nM): 36.9566
Raw data (SEAP) (LD3, A-1155463 3160 nM): 29.5938
Normalized data (SEAP) (LD3, A-1155463 10000 nM): 17.181
Raw data (SEAP) (LD3, A-1155463 10000 nM): 13.758
Normalized data (SEAP) (LD3v1, A-1155463 1 nM): 5.697
Raw data (SEAP) (LD3v1, A-1155463 1 nM): 3.397
Normalized data (SEAP) (LD3v1, A-1155463 3.16 nM): 9.008
Raw data (SEAP) (LD3v1, A-1155463 3.16 nM): 5.371
Normalized data (SEAP) (LD3v1, A-1155463 10 nM): 34.145
Raw data (SEAP) (LD3v1, A-1155463 10 nM): 20.3588
Normalized data (SEAP) (LD3v1, A-1155463 31.6 nM): 55.6344
Raw data (SEAP) (LD3v1, A-1155463 31.6 nM): 33.1716
Normalized data (SEAP) (LD3v1, A-1155463 100 nM): 100
Raw data (SEAP) (LD3v1, A-1155463 100 nM): 59.6244
Normalized data (SEAP) (LD3v1, A-1155463 316 nM): 84.0823
Raw data (SEAP) (LD3v1, A-1155463 316 nM): 50.1335
Normalized data (SEAP) (LD3v1, A-1155463 1000 nM): 65.4287
Raw data (SEAP) (LD3v1, A-1155463 1000 nM): 39.0114
Normalized data (SEAP) (LD3v1, A-1155463 3160 nM): 35.6708
Raw data (SEAP) (LD3v1, A-1155463 3160 nM): 21.2685
Normalized data (SEAP) (LD3v1, A-1155463 10000 nM): 16.487
Raw data (SEAP) (LD3v1, A-1155463 10000 nM): 9.83
Normalized data (SEAP) (LD3v2, A-1155463 1 nM): 18.0278
Raw data (SEAP) (LD3v2, A-1155463 1 nM): 19.4289
Normalized data (SEAP) (LD3v2, A-1155463 3.16 nM): 13.8407
Raw data (SEAP) (LD3v2, A-1155463 3.16 nM): 14.9163
Normalized data (SEAP) (LD3v2, A-1155463 10 nM): 72.4321
Raw data (SEAP) (LD3v2, A-1155463 10 nM): 78.0614
Normalized data (SEAP) (LD3v2, A-1155463 31.6 nM): 98.2639
Raw data (SEAP) (LD3v2, A-1155463 31.6 nM): 105.901
Normalized data (SEAP) (LD3v2, A-1155463 100 nM): 100
Raw data (SEAP) (LD3v2, A-1155463 100 nM): 107.772
Normalized data (SEAP) (LD3v2, A-1155463 316 nM): 90.2158
Raw data (SEAP) (LD3v2, A-1155463 316 nM): 97.2273
Normalized data (SEAP) (LD3v2, A-1155463 1000 nM): 79.3099
Raw data (SEAP) (LD3v2, A-1155463 1000 nM): 85.4738
Normalized data (SEAP) (LD3v2, A-1155463 3160 nM): 45.5807
Raw data (SEAP) (LD3v2, A-1155463 3160 nM): 49.1232
Normalized data (SEAP) (LD3v2, A-1155463 10000 nM): 26.3886
Raw data (SEAP) (LD3v2, A-1155463 10000 nM): 28.4395
Normalized data (SEAP) (LD3v3, A-1155463 1 nM): 53.0121
Raw data (SEAP) (LD3v3, A-1155463 1 nM): 3.893
Normalized data (SEAP) (LD3v3, A-1155463 3.16 nM): 45.4436
Raw data (SEAP) (LD3v3, A-1155463 3.16 nM): 3.337
